Laboratory results from patent US7732447B2, “Fused [d]pyridazin-7-ones” (Cephalon, Inc., priority 2006, dated 2010).

Molecular target: T1, vascular endothelial growth factor receptor-2 (VEGFR2) cytoplasmic domain (Homo sapiens, UniProt P35968)
T1 construct: recombinant baculovirus-expressed vascular endothelial growth factor receptor-2 (VEGFR2) cytoplasmic domain; made in house
Assay: Vascular Endothelial Growth Factor Receptor-2 kinase inhibition assay (TRF)
Type: biochemical
Details: 300 nM compound; 40 μM ATP; read-out: VEGFR-2 % inhibition @ 300 nM
Method: Compounds were tested for their ability to inhibit the kinase activity of recombinant baculovirus-expressed vascular endothelial growth factor receptor-2 (VEGFR2) cytoplasmic domain using the time-resolved fluorescence (TRF) detection system. IC50s were conducted in 96-well Costar high binding plates (Corning Costar #3922, Corning, N.Y.). Briefly, each 96-well plate was coated with 100 μL/well of 10 μg/mL recombinant substrate, glutathione S-transferase-phospholipase C-γ fusion protein (GST-PLCγ Lot # 3P5.1A), in Tris-buffered saline (TBS). The VEGFR2 assay mixture (total volume=100 μL/well) consisting of 20 mM HEPES, pH 7.2, 40 μM ATP, 10 mM MnCl2, 0.1% bovine serum albumin (BSA), and test compound (diluted in DMSO; 2.5% DMSO final in assay) was then added to the assay plate. Enzyme (30 ng/mL VEGFR2 Lot # V2g-2.1A) was added and the reaction was allowed to proceed at 37° C. for 15 minutes. Detection of the phosphorylated product was performed by adding 100 μL/well of Eu-N1 labeled PY100 antibody (PerkinElmer Life Sciences #AD0160, Boston, Mass.) diluted 1:5000 in 0.25% BSA in TBS containing 0.05% Tween-20 (TBS-T). Incubation at 37° C. then proceeded for 1 hour, followed by addition of 100 μL enhancement solution (PerkinElmer Life Sciences #1244-105, Boston, Mass.). The plate was gently agitated and after 30 minutes, the fluorescence of the resulting solution was measured using the PerkinElmer EnVision 2100 (or 2102) multilabel plate reader.

T1 sequence (P35968 786-1356 limits assumed, species assumed): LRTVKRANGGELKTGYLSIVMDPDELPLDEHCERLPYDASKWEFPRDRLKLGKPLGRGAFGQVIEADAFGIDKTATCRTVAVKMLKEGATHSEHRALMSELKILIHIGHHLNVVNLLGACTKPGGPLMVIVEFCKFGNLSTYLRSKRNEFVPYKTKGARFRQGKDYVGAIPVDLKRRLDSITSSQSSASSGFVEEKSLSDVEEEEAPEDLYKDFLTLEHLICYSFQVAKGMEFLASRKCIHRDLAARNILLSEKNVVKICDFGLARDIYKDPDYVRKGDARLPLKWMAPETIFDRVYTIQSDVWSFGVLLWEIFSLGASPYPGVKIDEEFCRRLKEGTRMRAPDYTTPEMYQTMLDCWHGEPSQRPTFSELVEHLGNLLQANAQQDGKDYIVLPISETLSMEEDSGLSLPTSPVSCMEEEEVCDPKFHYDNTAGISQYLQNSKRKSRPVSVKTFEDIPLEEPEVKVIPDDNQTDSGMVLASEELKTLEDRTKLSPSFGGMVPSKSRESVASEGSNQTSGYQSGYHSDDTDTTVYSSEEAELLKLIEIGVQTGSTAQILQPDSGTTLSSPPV

Structure (SMILES)	inhibition at 0.3 µM [%]
O=c1[nH]nc(-c2ccccn2)c2[nH]c3ccccc3c12 [Example 4b, 4-Pyridin-2-yl-2,5-dihydro-pyridazino[4,5-b]indol-1-one]	7
O=c1[nH]nc(-c2cccnc2)c2[nH]c3ccccc3c12 [Example 4c, 4-Pyridin-3-yl-2,5-dihydro-pyridazino[4,5-b]indol-1-one]	14
O=c1[nH]nc(-c2ccncc2)c2[nH]c3ccccc3c12 [Example 4d, 4-Pyridin-4-yl-2,5-dihydro-pyridazino[4,5-b]indol-1-one]	18
Cc1ccc(-c2n[nH]c(=O)c3c2[nH]c2ccccc23)o1 [Example 4e, 4-(5-Methyl-furan-2-yl)-2,5-dihydro-pyridazino[4,5-b]indol-1-one]	4
O=c1[nH]nc(-c2nccs2)c2[nH]c3ccccc3c12 [Example 4f, 4-Thiazo-2-yl-2,5-dihydro-pyridazino[4,5-b]indol-1-one]	0
Cn1ccnc1-c1n[nH]c(=O)c2c1[nH]c1ccccc12 [Example 4g, 4-(1-Methyl-1H-imidazol-2-yl)-2,5-dihydro-pyridazino[4,5-b]indol-1-one]	0
Cn1c(-c2n[nH]c(=O)c3c2[nH]c2ccccc23)nc2ccccc21 [Example 4h, 4-(1-Methyl-1H-benzoimidazol-2-yl)-2,5-dihydro-pyridazino[4,5-b]indol-1-one]	0
O=c1[nH]nc(-c2ccc(-c3ccccc3)cc2)c2[nH]c3ccccc3c12 [Example 4i, 4-Biphenyl-4-yl-2,5-dihydro-pyridazino[4,5-b]indol-1-one]	16
O=c1[nH]nc(-c2cnc3ccccc3n2)c2[nH]c3ccccc3c12 [Example 4j, 4-Quinoxalin-2-yl-2,5-dihydro-pyridazino[4,5-b]indol-1-one]	0
O=c1[nH]nc(-c2cc3ccccc3o2)c2[nH]c3ccccc3c12 [Example 4k, 4-Benzofuran-2-yl-2,5-dihydro-pyridazino[4,5-b]indol-1-one]	0
COc1ccc2[nH]c3c(-c4cc5ccccc5o4)n[nH]c(=O)c3c2c1 [Example 4l, 4-Benzofuran-2-yl-8-methoxy-2,5-dihydro-pyridazino[4,5-b]indol-1-one]	9
O=c1[nH]nc(-c2cc3ccccc3o2)c2[nH]c3cc4c(cc3c12)OCO4 [Example 4m, 8-Benzofuran-2-yl-6,9-dihydro-1,3-dioxa-6,7,9-triaza-cyclopenta[b]fluoren-5-one]	0
O=c1[nH]nc(-c2cc3ccccc3o2)c2[nH]c3cccc(OCc4ccccc4)c3c12 [Example 4n, 4-Benzofuran-2-yl-9-benzyloxy-2,5-dihydro-pyridazino[4,5-b]indol-1-one]	2
O=c1[nH]nc(-c2cc3ccccc3o2)c2[nH]c3ccc(OCc4ccccc4)cc3c12 [Example 4o, 4-Benzofuran-2-yl-8-benzyloxy-2,5-dihydro-pyridazino[4,5-b]indol-1-one]	10
O=c1[nH]nc(-c2cc3ccccc3o2)c2[nH]c3cc(OCc4ccccc4)ccc3c12 [Example 4p, 4-Benzofuran-2-yl-7-benzyloxy-2,5-dihydro-pyridazino[4,5-b]indol-1-one]	14
O=c1[nH]nc(-c2cc3ccccc3o2)c2[nH]c3ccc(O)cc3c12 [Example 4q, 4-Benzofuran-2-yl-8-hydroxy-2,5-dihydro-pyridazino[4,5-b]indol-1-one]	21
Cn1c2ccccc2c2c(=O)[nH]nc(-c3cc4ccccc4o3)c21 [Example 11a, 4-Benzofuran-2-yl-5-methyl-2,5-dihydro-pyridazino[4,5-b]indol-1-one]	0
Cn1c2ccccc2c2c(=O)[nH]nc(-c3cc4ccccc4s3)c21 [Example 11b, 4-Benzo[b]thiophen-2-yl-5-methyl-2,5-dihydro-pyridazino[4,5-b]indol-1-one]	0
Cn1c2ccccc2c2c(=O)[nH]nc(-c3ccc4ccccc4c3)c21 [Example 11c, 5-Methyl-4-naphthalen-2-yl-2,5-dihydro-pyridazino[4,5-b]indol-1-one]	3
O=c1[nH]nc(-c2cc3ccccc3s2)c2c1[nH]c1ccccc12 [Example 14b, 1-Benzo[b]thiophen-2-yl-3,5-dihydro-pyridazino[4,5-b]indol-4-one]	3
O=c1[nH]nc(-c2ccc3ccccc3c2)c2c1[nH]c1ccccc12 [Example 14c, 1-Naphthalen-2-yl-3,5-dihydro-pyridazino[4,5-b]indol-4-one]	1

Molecular target: T2, MLK1 (GST-MLK1KD) (Homo sapiens, UniProt P80192)
T2 construct: 1 μg/mL of baculoviral GST-MLK1KD (Lot 23.1A); GST; made in house
Assay: Mixed Lineage Kinase-1 inhibition assay (32P, myelin basic protein)
Type: biochemical
Details: 300 nM compound; 60 μM ATP; read-out: MLK-1 % inhibition (@300 nM)
Method: The activity assay for MLK1 was performed using the 96-well Millipore Multiscreen plate format. Each 50-μL assay mixture contained 50 mM HEPES (pH 7.0), 1 mM EGTA, 10 mM MgCl2, 1 mM DTT, 25 mM β-glycerophosphate, 60 μM ATP, 1 μCi [γ-^32P]ATP, 0.1% BSA, 500 μg/mL myelin basic protein (Upstate #13-104), 2% DMSO, various concentrations of test compound, and 1 μg/mL of baculoviral GST-MLK1KD (Lot 23.1A). Samples were incubated for 15 minutes at 37° C. The reaction was stopped by adding ice-cold 50% trichloroacetic acid (TCA) and the proteins were allowed to precipitate for 30 minutes at 4° C. The plates were then washed with ice-cold 25% TCA. Supermix scintillation cocktail was added, and the plates were allowed to equilibrate for 1-2 hours prior to counting in the Wallac MicroBeta 1450 Plus scintillation counter.

T2 sequence (P80192 144-412 limits assumed, species assumed): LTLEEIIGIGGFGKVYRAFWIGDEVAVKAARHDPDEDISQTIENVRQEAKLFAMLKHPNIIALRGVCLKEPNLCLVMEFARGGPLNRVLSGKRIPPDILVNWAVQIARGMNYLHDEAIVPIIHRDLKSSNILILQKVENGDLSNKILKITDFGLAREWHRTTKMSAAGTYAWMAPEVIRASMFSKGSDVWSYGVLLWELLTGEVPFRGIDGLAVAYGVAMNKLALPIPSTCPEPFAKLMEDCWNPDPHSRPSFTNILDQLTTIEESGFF

Structure (SMILES)	inhibition at 0.3 µM [%]
O=c1[nH]nc(-c2cc3ccccc3o2)c2[nH]c3ccc(O)cc3c12 [Example 4q, 4-Benzofuran-2-yl-8-hydroxy-2,5-dihydro-pyridazino[4,5-b]indol-1-one]	67

Same assay, conditions: 1 uM compound; 60 μM ATP; read-out: MLK-1 % inhibition @ 1 uM

Structure (SMILES)	inhibition at 1 µM [%]
O=c1[nH]nc(-c2ccccn2)c2[nH]c3ccccc3c12 [Example 4b, 4-Pyridin-2-yl-2,5-dihydro-pyridazino[4,5-b]indol-1-one]	0
O=c1[nH]nc(-c2cccnc2)c2[nH]c3ccccc3c12 [Example 4c, 4-Pyridin-3-yl-2,5-dihydro-pyridazino[4,5-b]indol-1-one]	0
O=c1[nH]nc(-c2ccncc2)c2[nH]c3ccccc3c12 [Example 4d, 4-Pyridin-4-yl-2,5-dihydro-pyridazino[4,5-b]indol-1-one]	0
Cc1ccc(-c2n[nH]c(=O)c3c2[nH]c2ccccc23)o1 [Example 4e, 4-(5-Methyl-furan-2-yl)-2,5-dihydro-pyridazino[4,5-b]indol-1-one]	10
O=c1[nH]nc(-c2nccs2)c2[nH]c3ccccc3c12 [Example 4f, 4-Thiazo-2-yl-2,5-dihydro-pyridazino[4,5-b]indol-1-one]	5
Cn1ccnc1-c1n[nH]c(=O)c2c1[nH]c1ccccc12 [Example 4g, 4-(1-Methyl-1H-imidazol-2-yl)-2,5-dihydro-pyridazino[4,5-b]indol-1-one]	2
Cn1c(-c2n[nH]c(=O)c3c2[nH]c2ccccc23)nc2ccccc21 [Example 4h, 4-(1-Methyl-1H-benzoimidazol-2-yl)-2,5-dihydro-pyridazino[4,5-b]indol-1-one]	0
O=c1[nH]nc(-c2ccc(-c3ccccc3)cc2)c2[nH]c3ccccc3c12 [Example 4i, 4-Biphenyl-4-yl-2,5-dihydro-pyridazino[4,5-b]indol-1-one]	14
O=c1[nH]nc(-c2cnc3ccccc3n2)c2[nH]c3ccccc3c12 [Example 4j, 4-Quinoxalin-2-yl-2,5-dihydro-pyridazino[4,5-b]indol-1-one]	0
O=c1[nH]nc(-c2cc3ccccc3o2)c2[nH]c3ccccc3c12 [Example 4k, 4-Benzofuran-2-yl-2,5-dihydro-pyridazino[4,5-b]indol-1-one]	41
COc1ccc2[nH]c3c(-c4cc5ccccc5o4)n[nH]c(=O)c3c2c1 [Example 4l, 4-Benzofuran-2-yl-8-methoxy-2,5-dihydro-pyridazino[4,5-b]indol-1-one]	53
O=c1[nH]nc(-c2cc3ccccc3o2)c2[nH]c3cc4c(cc3c12)OCO4 [Example 4m, 8-Benzofuran-2-yl-6,9-dihydro-1,3-dioxa-6,7,9-triaza-cyclopenta[b]fluoren-5-one]	46
O=c1[nH]nc(-c2cc3ccccc3o2)c2[nH]c3cccc(OCc4ccccc4)c3c12 [Example 4n, 4-Benzofuran-2-yl-9-benzyloxy-2,5-dihydro-pyridazino[4,5-b]indol-1-one]	44
O=c1[nH]nc(-c2cc3ccccc3o2)c2[nH]c3ccc(OCc4ccccc4)cc3c12 [Example 4o, 4-Benzofuran-2-yl-8-benzyloxy-2,5-dihydro-pyridazino[4,5-b]indol-1-one]	73
O=c1[nH]nc(-c2cc3ccccc3o2)c2[nH]c3cc(OCc4ccccc4)ccc3c12 [Example 4p, 4-Benzofuran-2-yl-7-benzyloxy-2,5-dihydro-pyridazino[4,5-b]indol-1-one]	0
Cn1c2ccccc2c2c(=O)[nH]nc(-c3cc4ccccc4o3)c21 [Example 11a, 4-Benzofuran-2-yl-5-methyl-2,5-dihydro-pyridazino[4,5-b]indol-1-one]	19
Cn1c2ccccc2c2c(=O)[nH]nc(-c3cc4ccccc4s3)c21 [Example 11b, 4-Benzo[b]thiophen-2-yl-5-methyl-2,5-dihydro-pyridazino[4,5-b]indol-1-one]	0
Cn1c2ccccc2c2c(=O)[nH]nc(-c3ccc4ccccc4c3)c21 [Example 11c, 5-Methyl-4-naphthalen-2-yl-2,5-dihydro-pyridazino[4,5-b]indol-1-one]	0
O=c1[nH]nc(-c2cc3ccccc3s2)c2c1[nH]c1ccccc12 [Example 14b, 1-Benzo[b]thiophen-2-yl-3,5-dihydro-pyridazino[4,5-b]indol-4-one]	0
O=c1[nH]nc(-c2ccc3ccccc3c2)c2c1[nH]c1ccccc12 [Example 14c, 1-Naphthalen-2-yl-3,5-dihydro-pyridazino[4,5-b]indol-4-one]	12

Same assay, conditions: 60 μM ATP; read-out: MLK-1 IC50

Structure (SMILES)	IC50 [nM]
O=c1[nH]nc(-c2cc3ccccc3o2)c2[nH]c3ccccc3c12 [Example 4k, 4-Benzofuran-2-yl-2,5-dihydro-pyridazino[4,5-b]indol-1-one]	2660
COc1ccc2[nH]c3c(-c4cc5ccccc5o4)n[nH]c(=O)c3c2c1 [Example 4l, 4-Benzofuran-2-yl-8-methoxy-2,5-dihydro-pyridazino[4,5-b]indol-1-one]	1020
O=c1[nH]nc(-c2cc3ccccc3o2)c2[nH]c3ccc(OCc4ccccc4)cc3c12 [Example 4o, 4-Benzofuran-2-yl-8-benzyloxy-2,5-dihydro-pyridazino[4,5-b]indol-1-one]	381
O=c1[nH]nc(-c2cc3ccccc3o2)c2[nH]c3ccc(O)cc3c12 [Example 4q, 4-Benzofuran-2-yl-8-hydroxy-2,5-dihydro-pyridazino[4,5-b]indol-1-one]	138

Molecular target: CDK5/GST-p25 (Homo sapiens, UniProt Q00535)
Assay: Cyclin-Dependent Kinase 5 inhibition assay (TRF)
Type: biochemical
Details: 10 μM ATP; read-out: CDK-5 IC50
Method: Compounds were tested for their ability to inhibit the kinase activity of baculovirus-expressed cyclin-dependent kinase-5 complexed with GST-p25 (CDK5/GST-p25) using a a TRF detection system. Each 96-well Costar high binding plate (Corning Costar #3922, Corning, N.Y.) was coated with 100 μL/well of 50 μg/mL recombinant GST-tagged substrate [GST-retinoblastoma protein (Rb) Lot # 5.1A] in TBS. The CDK5/GST-p25 assay mixture (total volume=100 μL/well) consisting of 20 mM HEPES, pH 7.2, 10 μM ATP, 10 mM MgCl2, 5 mM EGTA, 25 mM β-glycerophosphate, 0.1% BSA, 2.5% DMSO, and various concentrations of test compound were then added to the assay plate. Enzyme (2 ng/mL CDK5/GST-p25 Lot # p25/CD5-3) was added and the reaction was allowed to proceed at 37° C. for 20 minutes. Detection of the phosphorylated product was performed by adding 100 μL/well of phospho-Rb (Ser-780) antibody (Cell Signaling #9307, Beverly, Mass.) diluted 1:10,000 in antibody dilution buffer (0.1% BSA in TBS-T). After 1-hour incubation at room temperature, 100 μL/well of Eu—N1 labelled anti-rabbit antibody diluted 1:50,000 in antibody dilution buffer (PerkinElmer Life Sciences #AD0105, Boston, Mass.) was added. Incubation at room temperature then proceeded for 1 hour, followed by addition of 100 μl enhancement solution (PerkinElmer Life Sciences #1244-105, Boston, Mass.). The plate was gently agitated and after a few minutes, the fluorescence of the resulting solution was measured using the PerkinElmer EnVision 2100 (or 2102) multilabel plate reader.

Sequence of CDK5/GST-p25 (Q00535 whole entry, species assumed): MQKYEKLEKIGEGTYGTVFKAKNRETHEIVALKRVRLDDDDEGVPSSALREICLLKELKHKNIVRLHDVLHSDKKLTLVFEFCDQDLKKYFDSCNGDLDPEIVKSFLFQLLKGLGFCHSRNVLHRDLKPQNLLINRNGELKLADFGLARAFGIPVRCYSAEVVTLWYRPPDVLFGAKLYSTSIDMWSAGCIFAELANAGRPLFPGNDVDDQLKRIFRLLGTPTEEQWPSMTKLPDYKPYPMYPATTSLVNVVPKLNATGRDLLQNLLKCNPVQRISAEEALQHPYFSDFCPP
Sequence of CDK5/GST-p25 (Q15078 99-307 partner limits assumed, species assumed): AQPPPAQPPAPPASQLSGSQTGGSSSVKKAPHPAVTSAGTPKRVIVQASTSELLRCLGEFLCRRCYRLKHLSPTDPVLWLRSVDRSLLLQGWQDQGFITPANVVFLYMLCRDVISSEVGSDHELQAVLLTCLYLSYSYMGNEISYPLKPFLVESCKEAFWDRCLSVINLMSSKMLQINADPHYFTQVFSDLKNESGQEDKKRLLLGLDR

Structure (SMILES)	IC50 [nM]
O=c1[nH]nc(-c2ccncc2)c2[nH]c3ccccc3c12 [Example 4d, 4-Pyridin-4-yl-2,5-dihydro-pyridazino[4,5-b]indol-1-one]	3820
COc1ccc(-c2n[nH]c(=O)c3c2[nH]c2ccccc23)cc1 [Example 4r, 4-(4-Methoxy-phenyl)-2,5-dihydro-pyridazino[4,5-b]indol-1-one]	> 1000
O=c1[nH]nc(-c2ccncc2)c2[nH]c3ccc([N+](=O)[O-])cc3c12 [Example 4v, 8-Nitro-4-pyridin-4-yl-2,5-dihydro-pyridazino[4,5-b]indol-1-one]	> 3000
O=c1[nH]nc(-c2ccc(O)cc2)c2c1[nH]c1ccccc12 [Example 14e, 1-(4-Hydroxy-phenyl)-3,5-dihydro-pyridazino[4,5-b]indol-4-one]	> 3000

Test system: not given
Assay: not given
Details: not given

Structure (SMILES)	melting point [°C]
COc1ccc(-c2n[nH]c(=O)c3c2[nH]c2ccccc23)cc1 [Example 4r, 4-(4-Methoxy-phenyl)-2,5-dihydro-pyridazino[4,5-b]indol-1-one]	> 300
